PubChem BioAssay AID1205 (EPA DSSTox, 2008)
Activity calls are given as the source filed them.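 The calls were made as follows: active = tumour findings in long-term animal cancer tests in more than one sex, species or organ; inactive = no tumour finding and more than one negative test.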

Test: DSSTox (CPDBAS) Carcinogenic Potency Database Summary MultiCellCall Results
Conditions: animal carcinogenicity bioassays, multi-cell call summary
Summary of the method: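 Summary call drawn from chronic long-term cancer bioassays in rats, mice, hamsters, dogs and nonhuman primates, using the most positive result per sex-species. Score: multispecies=50, multisex=30, multisite=20, summed for combinations.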
In the case of `Cc1cc(N=Nc2c(O)ccc3ccccc23)c(S(=O)(=O)O)cc1Cl`, the outcome is reported as “active; multisite active”. For `Oc1c(Cl)cc(Cl)cc1Sc1cc(Cl)cc(Cl)c1O`, the outcome was “inactive; multisex inactive”. With `O=S(=O)(O)c1c(N=Nc2c(O)ccc3ccccc23)ccc2ccccc12` the outcome was “inactive; multisex inactive”. With `C/C=C1/C[C@@H](C)[C@](O)(CO)C(=O)OCC2=CC[N+]3([O-])CC[C@@H](OC1=O)[C@@H]23` (some centres undefined) the outcome was “active; multisex active”. With `CCSCCC(N)C(=O)O` (centres undefined) the outcome was “active; multisex active; multispecies active”. With `C[C@](N)(Cc1ccc(O)c(O)c1)C(=O)O` the outcome was “inactive; multisex inactive; multispecies inactive”. With `O=NN1CCOCC1` the outcome was “active; multisite active; multisex active; multispecies active”. For `OCC(O)CCl` (centres undefined), the outcome was “inactive; multisex inactive”. In the case of `c1ccc2cc(Nc3ccc(Nc4ccc5ccccc5c4)cc3)ccc2c1`, the outcome is reported as “inactive; multisex inactive”. For `Oc1ccccc1`, the outcome was “inactive; multisex inactive; multispecies inactive”. For `Oc1ccc(OCc2ccccc2)cc1`, the outcome was “inactive; multisex inactive”. For `CCNN`, the outcome was “active; multisite active; multisex active”. For `ClCCl`, the outcome was “active; multisite active; multisex active; multispecies active”. With `Cc1cc2ncccc2c2nc(N)n(C)c12` the outcome was “active; multisite active; multisex active”. In the case of `Clc1cc2c(cc1Cl)Oc1cc(Cl)c(Cl)cc1O2`, the outcome is reported as “active; multisite active; multisex active; multispecies active”. For `S=C([S-])NCCNC(=S)[S-].[Zn+2]`, the outcome was “inactive; multisex inactive; multispecies inactive”. With `Nc1ccc(NCCO)c([N+](=O)[O-])c1` the outcome was “inactive; multisex inactive; multispecies inactive”. With `Nc1nc(/C=C/c2ccc([N+](=O)[O-])o2)no1` the outcome was “active; multisite active; multisex active”. In the case of `CC/C(=C(\c1ccccc1)c1ccc(OCCN(C)C)cc1)c1ccccc1`, the outcome is reported as “active; multisite active; multisex active; multispecies active”. For `CCN(N)C=O`, the outcome was “active; multisite active; multisex active”. For `Cc1ccccc1OCC(O)CNCCn1cc(C)c(=O)[nH]c1=O` (centres undefined), the outcome was “inactive; multisex inactive”. With `C[C@H]1CCCC(=O)CCC/C=C/c2cc(O)cc(O)c2C(=O)O1` the outcome was “active; multisite active; multisex active”. In the case of `ClC1=C(Cl)C2(Cl)C3C(Cl)C=CC3C1(Cl)C2(Cl)Cl` (centres undefined), the outcome is reported as “active; multisex active”. With `Clc1cccc(-c2ccc(Cl)c(Cl)c2Cl)c1Cl` the outcome was “active; multisite active; multisex active; multispecies active”. For `O=NN(CCO)CCO`, the outcome was “active; multisite active; multisex active”. For `O=[N+]([O-])c1ccc2c3c(cccc13)CC2`, the outcome was “active; multisite active; multisex active; multispecies active”. In the case of `O=NN1CCCC1c1ccc[n+]([O-])c1` (centres undefined), the outcome is reported as “active; multisite active; multisex active”. With `CC1(C)S[C@@H]2[C@H](NC(=O)COc3ccccc3)C(=O)N2[C@H]1C(=O)O` the outcome was “inactive; multisex inactive; multispecies inactive”. With `CN(C)C(=O)Nc1cccc(C(F)(F)F)c1` the outcome was “inactive; multisex inactive; multispecies inactive”. For `C=Cc1cccc[n+]1[O-]`, the outcome was “inactive; multispecies inactive”. In the case of `c1ccccc1`, the outcome is reported as “active; multisite active; multisex active; multispecies active”. For `Cc1cc(=O)n(-c2ccccc2)n1C`, the outcome was “active; multisite active”. For `CCCC[C@H](C)[C@@H](OC(=O)C[C@H](CC(=O)O)C(=O)O)[C@@H](C[C@H](C)C[C@@H](O)CCCC[C@@H](O)C[C@H](O)[C@H](C)N)OC(=O)C[C@H](CC(=O)O)C(=O)O`, the outcome was “active; multisite active; multisex active; multispecies active”. For `O=C(Oc1ccccc1)Oc1ccccc1`, the outcome was “inactive; multisex inactive”. In the case of `CCOC(=O)[C@H](CCc1ccccc1)N[C@@H](C)C(=O)N1Cc2ccccc2C[C@H]1C(=O)O`, the outcome is reported as “inactive; multisex inactive; multispecies inactive”. For `CCN(Cc1cccc(S(=O)(=O)O)c1)c1ccc(C(=C2C=CC(=[N+](CC)Cc3cccc(S(=O)(=O)[O-])c3)C=C2)c2ccccc2)cc1`, the outcome was “active; multisite active; multisex active”. With `CN1C(=O)C(O)N=C(c2ccccc2)c2cc(Cl)ccc21` (centres undefined) the outcome was “inactive; multisex inactive”. With `CCN=c1cc2oc3cc(NCC)c(C)cc3c(-c3ccccc3C(=O)OCC)c-2cc1C` the outcome was “inactive; multisex inactive; multispecies inactive”. In the case of `CCN(CC)C(=O)Nc1ccc(OCC(O)CNC(C)(C)C)c(C(C)=O)c1` (centres undefined), the outcome is reported as “inactive; multisex inactive; multispecies inactive”. In the case of `Cc1cc(-c2ccc(N)c(C)c2)ccc1N`, the outcome is reported as “active; multisite active; multisex active; multispecies active”. In the case of `CC(=O)Nc1ccc(S(=O)(=O)O)c2cc(S(=O)(=O)O)c(N=Nc3ccc(N=Nc4ccc(S(=O)(=O)O)cc4)c4ccc(S(=O)(=O)O)cc34)c(O)c12`, the outcome is reported as “inactive; multisex inactive; multispecies inactive”. In the case of `FC(F)Cl`, the outcome is reported as “inactive; multisex inactive; multispecies inactive”. In the case of `N[C@@H](CCC(=O)O)C(=O)O`, the outcome is reported as “inactive; multisex inactive; multispecies inactive”. For `C=C1C(C)(C)[C@@]2(Cl)C(Cl)[C@]1(Cl)C(Cl)(Cl)C2(Cl)Cl` (some centres undefined), the outcome was “active; multisite active”. For `O=S(=O)(c1ccc(Cl)cc1)c1cc(Cl)c(Cl)cc1Cl`, the outcome was “inactive; multisex inactive”. For `FC(F)=C(F)F`, the outcome was “active; multisite active; multisex active; multispecies active”. With `CC(=O)Oc1ccccc1C(=O)O` the outcome was “inactive; multisex inactive; multispecies inactive”. In the case of `O=C1OC(=O)c2ccccc21`, the outcome is reported as “inactive; multisex inactive; multispecies inactive”. For `COc1cc(/C=N/NC(=O)c2ccncc2)ccc1O`, the outcome was “active; multisite active”. With `Cc1ccc(N)cc1` the outcome was “active; multisex active”. For `C[C@]12CC[C@H](O)CC1=CC[C@@H]1[C@@H]2CC[C@]2(C)C(=O)CC[C@@H]12`, the outcome was “active; multisex active”. In the case of `O=C(Nc1ccc2c(c1)Cc1ccccc1-2)C(F)(F)F`, the outcome is reported as “active; multisite active”. In the case of `c1ccc(C2CO2)cc1` (centres undefined), the outcome is reported as “active; multisex active; multispecies active”. In the case of `CSCCC(N)C(=O)O` (centres undefined), the outcome is reported as “inactive; multispecies inactive”. In the case of `CCC(O)OC(O)CC` (centres undefined), the outcome is reported as “inactive; multisex inactive; multispecies inactive”. In the case of `ClC(Cl)=C(c1ccc(Cl)cc1)c1ccc(Cl)cc1`, the outcome is reported as “active; multisex active; multispecies active”. In the case of `CCN(N=O)C(=O)NCC(C)=O`, the outcome is reported as “active; multisite active; multisex active; multispecies active”. With `CCCCCCCCCCCCCCCC(=O)OC/C=C(C)/C=C/C=C(C)/C=C/C1=C(C)CCCC1(C)C` the outcome was “inactive; multispecies inactive”. With `Nc1ccccc1C(=O)O` the outcome was “inactive; multisex inactive; multispecies inactive”. In the case of `CCCCNN`, the outcome is reported as “active; multisex active”. In the case of `CN1[C@@H]2CC(OC(=O)[C@@H](CO)c3ccccc3)C[C@H]1[C@@H]1O[C@@H]12` (some centres undefined), the outcome is reported as “inactive; multisex inactive; multispecies inactive”. In the case of `C[C@H](CCc1ccccc1)NC[C@H](O)c1ccc(O)c(C(N)=O)c1`, the outcome is reported as “inactive; multisex inactive”. For `O=c1[nH]c(=O)n(C2CCCO2)cc1F` (centres undefined), the outcome was “inactive; multisex inactive; multispecies inactive”. With `Cc1ncc[nH]1` the outcome was “active; multisite active; multisex active; multispecies active”. With `CC1(C)S[C@@H]2[C@H](NC(=O)[C@H](N)c3ccccc3)C(=O)N2[C@H]1C(=O)O` the outcome was “inactive; multisex inactive; multispecies inactive”. With `NNC(N)=S` the outcome was “inactive; multisex inactive; multispecies inactive”. With `O=P(OC(CCl)CCl)(OC(CCl)CCl)OC(CCl)CCl` the outcome was “active; multisite active; multisex active”. With `ClC(Cl)(Cl)C(Cl)(Cl)Cl` the outcome was “active; multisite active; multisex active; multispecies active”. In the case of `CN(C)C(=S)[S][Pb][S]C(=S)N(C)C`, the outcome is reported as “inactive; multisex inactive; multispecies inactive”. In the case of `Nc1ccc(Sc2ccc(N)cc2)cc1`, the outcome is reported as “active; multisite active; multisex active; multispecies active”. With `O=C1OC(O)C(C(Cl)Cl)=C1Cl` (centres undefined) the outcome was “active; multisite active; multisex active”. In the case of `Cc1cc(C)nc(-c2ccc([N+](=O)[O-])o2)n1`, the outcome is reported as “active; multisite active”. For `Cc1ccccc1N`, the outcome was “active; multisite active; multisex active; multispecies active”. For `Nc1cc(Cl)c(N)c(Cl)c1`, the outcome was “active; multisex active”. In the case of `CCCCCNN`, the outcome is reported as “active; multisite active”. For `CN(C)c1ccc(C(=O)c2ccc(N(C)C)cc2)cc1`, the outcome was “active; multisite active; multisex active; multispecies active”. In the case of `[O]=[Mo](=[O])=[O]`, the outcome is reported as “active; multisex active”. In the case of `CCC1(c2ccccc2)C(=O)NCNC1=O`, the outcome is reported as “active; multisite active; multisex active”. For `O=C(O)CCl`, the outcome was “inactive; multisex inactive; multispecies inactive”. In the case of `Clc1c(Cl)c(Cl)c(Cl)c(Cl)c1Cl`, the outcome is reported as “active; multisite active; multisex active; multispecies active”. With `COc1cc(S(C)=O)ccc1-c1nc2ccncc2[nH]1` (centres undefined) the outcome was “active; multisex active”. With `CCCCC(CC)COC(=O)CCCCC(=O)OCC(CC)CCCC` (centres undefined) the outcome was “active; multisex active”. In the case of `Nc1ccc([N+](=O)[O-])cc1N`, the outcome is reported as “inactive; multisex inactive; multispecies inactive”. For `Nc1ccccc1C(=O)OC/C=C/c1ccccc1`, the outcome was “active; multisite active; multisex active; multispecies active”. In the case of `ClC/C=C/CCl`, the outcome is reported as “active; multisex active”. With `CN(N=O)C(=O)c1ccccc1` the outcome was “active; multisite active; multisex active”. In the case of `COc1cc(CNC(=O)CCCC/C=C/C(C)C)ccc1O`, the outcome is reported as “active; multisex active”. For `CC1=CC(=O)CC(C)(C)C1`, the outcome was “active; multisite active”. With `CC(C)OC(=O)Nc1cccc(Cl)c1` the outcome was “inactive; multisex inactive; multispecies inactive”. With `CC(=O)Oc1c(C)c(C)c2c(c1C)CCC(C)(CCCC(C)CCCC(C)CCCC(C)C)O2` (centres undefined) the outcome was “inactive; multisex inactive”. With `Clc1ccc2c(c1)C(c1ccccc1)=NCc1nncn1-2` the outcome was “inactive; multisex inactive; multispecies inactive”. In the case of `CCCCN(CCCC)C(=S)[S-].CCCCN(CCCC)C(=S)[S-].[Zn+2]`, the outcome is reported as “inactive; multisex inactive”. For `C=C(C)[C@H]1Cc2c(ccc3c2O[C@@H]2COc4cc(OC)c(OC)cc4[C@@H]2C3=O)O1`, the outcome was “inactive; multisex inactive; multispecies inactive”. For `C=C(C)C(=O)OC`, the outcome was “inactive; multisex inactive; multispecies inactive”.
